Experimental data taken from US8802669B2, “Dihydropyrimidine compounds and preparation methods, pharmaceutical compositions and uses thereof” (Institute of Pharmacology and Toxicology Academy of …, priority 2009, dated 2014).

Legend:
[1] = Cytotoxicity in HepG2.2.15 cells (cell morphology, Reed & Muench); type: cell-based; settings: human, pathological changes observed by microscope after 8 days, read-out: TC50
Method: (§1) The antiviral tests were carried out in 96-well microtitre plates. Only growth medium and HepG2.2.15 cells were added to the first vertical row of the plate, which row severed as a blank control.
(§2) Stock solutions of the test compounds (50 mM) were initially dissolved in DMSO, and further dilutions were prepared in the growth medium of HepG2.2.15. The compounds according to the present invention, usually in a test concentration of 100 μg/ml (1st test concentration), were in each case pipetted into the second vertical test row of the microtitre plate and subsequently diluted by a factor of 2 each time, up to 2^10-fold, using growth medium plus 2% of foetal calf serum (volume 25 μl).
(§3) 225 μl of a HepG2.2.15 cell suspension (5×10^4 cells/ml) in growth medium plus 2% foetal calf serum were then added to each well of the microtitre plate.
(§4) The test batch was incubated at 37° C., 5% CO2 for 4 days. The supernatant was subsequently siphoned off and discarded, and 225 μl of freshly prepared growth medium were added to the wells. Once more, the compounds according to the present invention were added, in a volume 25 μl. The batches were incubated fro another 4 days.
Before the supernatants were harvested for determining the antiviral effect, the HePG2.2.15 cells were examined under the light microscope or by biochemical detection methods (for example Alamar Blue staining or Trypan Blue staining) for cytotoxic changes.
Substances-induced cytotoxic or cytostatic changes in the HepG2.2.15 cells were determined as changes in the cell morphology, for example under a light microscope. Such substance-induced changes of the HepG2.2.15 cells in comparison with untreated cells was apparent, for example, as cell lysis, vacuolization changed cell morphology. The pathological changes were observed by microscope after 8 days as index, a complete destroy being indicated as 4, 75% as 3, 50% as 2, 25% as 1, and no pathological change as 0. The average pathological change degree and inhibited percentages at various concentration were calculated, and a half-maximum toxic concentration (TC50) and a maximum non-toxic concentration […] were determined according to Reed & Muench methods.
TC50 means the concentration at which 50% of the cells have a morphology which is […] to the corresponding cell control by the compounds according to the present invention.

HBV DNA = test: Antiviral activity: inhibition of HBV DNA in supernatant of HepG2.2.15 cells (dot blot hybridization); type: cell-based, hepatitis B virus; settings: for IC50: Hepatitis B virus, HepG2.2.15 cells, 8 days (2 x 4 days) incubation, read-out: IC50 (Inhibitory effect on HBV DNA); for SI: selectivity index, TC50 against IC50, HepG2.2.15 cells
Method: The antiviral activity of the compounds according to the present invention was tested following the methods described by Sells et al. (M. A. Sells, M. L. Chen, g. Acs, Proc. Natl. Acad. Sci., 1987, 84, 1005-1009) and Korba et al., (B. E. Korba, J. L. Gerin, Antiviral Research, 1992, 19. 55-70).
as §1, §2, §3, §4
The supernatants were subsequently harvested and, by means of reduced pressure, siphoned onto 96-well dot blot chambers covered with a nylon membrane (in accordance with the specification provided by the manufacturer).
After transfer of the supernatants onto the nylon membrane of the blot apparatus (see above), the supernatants of the HepG2.2.15 cells were denatured (1.5 M NaCl/0.5 N NaOH), neutralized (3 M […]/0.5 M Tris HCl, pH 7.5) and washed (2×SSC). By incubation of the filters at 120° C. for 2-4 hours, the DNA was subsequently baked onto the membrane.
The viral DNA of the treated HEpG2.2.15 cells on the nylon filter membrane was usually detected using non-radioactive digoxygenin-labelled hepatitis B-specific DNA probes which were in each case in accordance with the specifications of the manufacturer labelled with digoxygenin, purified and used for hybridization.
Briefly speaking, the prehybridization and hybridization were carried out in 5×SSC, 1×blocking reagent, 0.1% N-lauroylsacosine, 0.02% SDS and 100 μg of DNA from herring sperm. The prehybridization was carried out at 60° C. for 30 minutes and the specific hybridization was carried out using 20 to 40 ng/ml of the digoxygenated denatured HBV-specific DNA (14 hours, 60° C.). The fillers were subsequently washed, and then determination of HBV DNA by digoxygenin antibodies was carried out.
The digoxygenin-labelled DNA was detected immunologically in accordance with the specifications of the manufacturer.
Briefly speaking, the fillers were washed and prehybridized in a blocking agent (in accordance with the specifications of the manufacturer). They were subsequently hybridized for 30 minutes using an anti-DIG antibody linked to alkaline phosphatase. After a washing step, the substrate of alkaline phosphatase, CSPD, was added, incubated with the filters for 5 minutes, subsequently wrapped in plastic film and incubated at 37° C. for a further 15 minutes. The chemiluminescene of the Hepatitis B-specific DNA signals was visualized by exposition of the filters on an X-ray film (incubation, depending on the signal strength: 10 minutes to 2 hours). The half-maximum inhibitory concentration (IC50) was determined.
The half-maximum inhibitory concentration (IC50) means the concentration at which the hepatitis B-specific band was reduced by 50% in comparison with an untreated sample by the compound according to the present invention.

[2] = Solubility of the hydrochloride solid in solvents; type: physicochemical
Method: 0.18 g of the target compound obtained in Example 5 was dissolved in 2 ml of anhydrous ethanol, a solution of hydrogen chloride in ethyl-ether was added dropwise to precipitate a solid, and filtered to give 0.19 g of an off-white powdered solid.

| Structure (SMILES) | CC50 at 8 days [1] | IC50 (HBV DNA) | SI (HBV DNA) | solubility in dichloromethane, ethyl acetate, acetone, and the like ([2]; dichloromethane, ethyl acetate, acetone) | solubility in methanol and ethanol ([2]; methanol and ethanol) | solubility in water ([2]; water) |
| --- | --- | --- | --- | --- | --- | --- |
| CCOC(=O)C1=C(CN2CCN(CC)CC2)NC(c2c(F)cc(F)cc2F)=NC1c1ccc(F)cc1Cl (stereo not drawn) [Example 8, ethyl 2-(2,4,6-trifluorophenyl)-4-(2-chloro-4-fluorophenyl)-6-(4-ethylpiperazin-1-ylmethyl)-1,4-dihydropyrimidine-5-carboxylate] | 41 µM | 6.7 µM | 6.16 | – | – | – |
| CCOC(=O)C1=C(CN2CCOCC2)N=C(c2c(F)cc(F)cc2N2CCOCC2)NC1c1ccc(F)cc1Cl (stereo not drawn) [Example 13, ethyl 2-[2,4-difluoro-6-(morpholin-1-yl)phenyl]-4-(2-chlor-4-fluorophenyl)-6-(morpholine-1-ylmethyl)-1,4-dihydropyrimidine-5-carboxylate] | 55 µM | 4.4 µM | 12.72 | – | – | – |
| CCOC(=O)C1=C(CN2CCOCC2)NC(c2c(F)cc(F)cc2F)=NC1c1ccc(F)cc1Cl.Cl (stereo not drawn) [Example 18, ethyl 2-(2,4,6-trifluorophenyl)-4-(2-chloro-4-fluorophenyl)-6-(morpholin-1-ylmethyl)-1,4-dihydropyrimidine-5-carboxylate hydrochloride] | 31 µM | 2.4 µM | 13.37 | insoluble | soluble slightly | greatly soluble |
| CCOC(=O)C1=C(CN(CCO)CCO)NC(c2c(F)cc(F)cc2F)=NC1c1ccc(F)cc1Cl (stereo not drawn) [Example 15, ethyl 2-(2,4,6-trifluorophenyl)-4-(2-chloro-4-fluorophenyl)-6-diethanolaminomethyl-1,4-dihydropyrimidine-5-carboxylate] | 54 µM | 6.7 µM | 8.11 | – | – | – |
